Test results published in BindingDB's records for patent US9428501 (Astellas Pharma Inc, 2016).
pEC50: −log10 of the molar value.

Target: 5'-AMP-activated protein kinase catalytic subunit alpha-2 (Homo sapiens, UniProt P54646)
Assay: Activation Assay
Settings: 37 °C
Procedure: After the incubation, 20 μl of a 40% glyoxal solution (Nacalai Tesque) was added to each well, and then cells were fixed by leaving to stand at room temperature for 30 minutes. Thereafter, the supernatant was removed by centrifuging the plate, and then 0.1% Triton X-100-containing Phosphate-Buffered Saline (PBS) was added to each well by 20 followed by incubating at room temperature for 10 minutes. […] The blocking solution was removed by centrifuging, with the exception of the blocking solution by centrifugation, and then a blocking solution which was diluted such that the amount of phosphorylation antibody (manufactured by Cell Signaling Technology, Inc) of ACC Ser79 as a primary antibody is 1/500 was added to each well by 10 followed by leaving to stand at 4° C. overnight. The following day, the reaction liquid was removed by centrifuging the plate, and then 0.05% Tween-20-containing Tris-Buffered Saline (TBS) (manufacture by Thermo Scientific Inc.; used in 1× in which 20×TBS Tween-20 was diluted with ion-exchange water) was added to each well by 25 followed by washing each well by centrifugal removal. The washing of each well was repeated for a total of 3 times. […]

Sequence of 5'-AMP-activated protein kinase catalytic subunit alpha-2 (P54646 whole entry): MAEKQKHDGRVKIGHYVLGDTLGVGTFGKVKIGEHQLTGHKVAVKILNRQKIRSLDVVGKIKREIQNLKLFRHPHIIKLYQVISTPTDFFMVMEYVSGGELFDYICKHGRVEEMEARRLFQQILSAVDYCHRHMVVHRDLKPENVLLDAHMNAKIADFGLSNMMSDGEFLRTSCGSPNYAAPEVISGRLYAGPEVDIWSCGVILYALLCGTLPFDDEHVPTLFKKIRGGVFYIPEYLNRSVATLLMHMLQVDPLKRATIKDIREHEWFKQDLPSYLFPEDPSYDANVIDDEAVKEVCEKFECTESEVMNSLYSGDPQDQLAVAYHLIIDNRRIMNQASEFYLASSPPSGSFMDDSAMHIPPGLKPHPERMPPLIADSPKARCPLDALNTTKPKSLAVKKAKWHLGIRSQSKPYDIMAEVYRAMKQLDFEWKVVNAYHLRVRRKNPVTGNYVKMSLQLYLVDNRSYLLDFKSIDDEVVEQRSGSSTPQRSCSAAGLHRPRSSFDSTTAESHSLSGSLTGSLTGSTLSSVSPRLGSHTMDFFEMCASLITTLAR

pEC50: 8.74
SMILES: CCOc1cnc(CN2CCC(c3ccc4cc(C(=O)N5CCN(Cc6ccc(C#N)cc6)CC5)n(C)c4c3)CC2)cn1 [US9428501, 69]
